Measured values published in US12486269B2 (Aconcagua Bio, Inc., priority 2024, dated 2025).

Legend:
[1] = molecular target: T1, COS-7/AMY3 (human calcitonin receptor (CTR) and RAMP3) (Homo sapiens, UniProt O60896+P30988); experiment: Amylin Receptor cAMP Assay II; type: cell-based; conditions: values marked **: Amylin Receptor cAMP Assay II; COS-7/AMY3 cells, cAMP dynamic 2 kit, 30 min; read-out: Amylin Receptor cAMP Stimulation Activity: EC50
T1 construct: expressed in transfected cells; host or cells: COS-7
T1 sequence (O60896 24-148, one chain of several): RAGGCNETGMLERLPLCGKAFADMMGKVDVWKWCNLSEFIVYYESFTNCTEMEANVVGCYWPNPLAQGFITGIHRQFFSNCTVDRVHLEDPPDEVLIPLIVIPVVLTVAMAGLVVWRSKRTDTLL
From the text: AMYRs are heterodimers of the class B calcitonin (CT) G-protein-coupled receptor (CTR) and receptor activity-modifying proteins (RAMPs). All three RAMPs can interact with the CTR and form AMY1, AMY2, AMY3 with RAMP1, RAMP2 and RAMP3, respectively. Like other class B1 GPCRs, the CT receptor family is canonically coupled to Gs-mediated cAMP production, and measurement of cAMP accumulation has been the primary assay used to determine peptide selectivity and potency.
(§1) To optimize functional activity directed toward Gαs coupling, COS-7 cells were stably transfected with human calcitonin receptor (CTR) and RAMP3, simultaneously. 100×concentration of compound working solutions were prepared with 4-fold serial dilution in 384-well Echo LDV plate (Labcyte, Cat #LP-0200-BC). 200 nL/well 100×concentration of compound working solutions were moved to 384-well white microplate (Perkin Elmer, Cat #6007680) using Labcyte ECHO550. 1×10^5 cells/mL COS-7/AMY3 cell suspensions prepared with assay buffer [HBSS containing 20 mM HEPES (Gibco, Cat #15630-080), 0.5 mM IBMX (Sigma, Cat #15879) and 0.1% Casein (Sigma, Cat #C4765)], 20 μL cell suspensions were added to each well of previous generated assay plate which already contains 200 nL compound at 100×concentration using ThermoFisher Multidrop Combi (2000 cells/well). Seal the plate and incubate at 37° C. with 5% CO2 for 30 min.
(§2) After incubation, the cAMP assay signal was generated using cAMP dynamic 2 kit (Revvity, Cat #62AM4PEC). 10 μL cAMP-d2 working solution was added to each well, followed by 10 μL Anti-cAMP antibody-cryptate working solution which was added to each well using CERTUS FLEX LIQUID […]. The samples were then incubated at room temperature for 1 hour protected from light. the fluorescence was read at 665 and 615 nm with Reader PerkinElmer EnVision 2105. % Activity=100−(mean RLU of test sample−mean RLU of positive control)/(mean RLU of vehicle control−mean RLU of positive control)×100 Calcitonin Receptor (CTR) cAMP Assay

[2] = molecular target: T2, human calcitonin receptor (CTR) (Homo sapiens, UniProt P30988); experiment: Calcitonin Receptor (CTR) cAMP Assay; type: cell-based; conditions: COS7-human CTR Clone #2 stable cell line, cAMP dynamic 2 kit, 30 min; read-out: Calcitonin Receptor cAMP Stimulation Activity: EC50
T2 construct: expressed in transfected cells; host or cells: COS-7 (COS7-human CTR Clone #2)
T2 sequence (P30988 25-474): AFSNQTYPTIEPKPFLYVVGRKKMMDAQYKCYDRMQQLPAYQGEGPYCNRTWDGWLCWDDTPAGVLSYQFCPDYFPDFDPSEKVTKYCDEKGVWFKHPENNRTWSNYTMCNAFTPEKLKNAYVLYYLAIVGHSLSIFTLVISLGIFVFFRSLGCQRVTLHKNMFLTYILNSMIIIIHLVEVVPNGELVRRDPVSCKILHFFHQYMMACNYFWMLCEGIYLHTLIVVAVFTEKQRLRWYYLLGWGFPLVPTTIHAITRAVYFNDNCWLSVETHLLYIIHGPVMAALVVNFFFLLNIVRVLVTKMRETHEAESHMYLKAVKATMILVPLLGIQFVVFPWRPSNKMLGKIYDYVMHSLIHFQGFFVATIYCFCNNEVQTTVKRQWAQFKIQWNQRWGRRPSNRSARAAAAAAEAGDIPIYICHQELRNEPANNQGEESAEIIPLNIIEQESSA
Procedure: as §2
The calcitonin receptor (CTR) belongs to the subfamily of GPCRs known as the secretin or ‘B’ family of GPCRs. Like other class B1 GPCRs, the CT receptor family is canonically coupled to Gs-mediated cAMP production, and measurement of cAMP accumulation has been the primary assay used to determine peptide selectivity and potency.
as §1, with “to create COS7-human CTR Clone #2 stable cell line.” for “and RAMP3, simultaneously.”, “COS7-human CTR Clone #2” for “COS-7/AMY3”
as §2, with “control)×100” for “control)×100 Calcitonin Receptor (CTR) cAMP Assay”

Row | SMILES | EC50 [1] [nM] | EC50 [2] [nM]
1 | CC(c1ccc(C#N)cn1)N1C(=O)C(C)(C)Oc2cc(-c3c4c(nc(CCc5ccc(F)cc5)c3-c3n[nH]c(=O)o3)[C@@H]3CCCN3C4=O)ccc21 (stereo partly drawn) [Compound 252, 6-(1-(7-((S)-2-(4-fluorophenethyl)-5-oxo-3-(5-oxo-4,5-dihydro-1,3,4-oxadiazol-2-yl)-7,8,9,9a-tetrahydro-5H-pyrido[2,3-a]pyrrolizin-4-yl)-2,2-dimethyl-3-oxo-2H-benzo[b][1,4]oxazin-4(3H)-yl)ethyl)nicotinonitrile] | 248 | 7.9
2 | O=C1c2c(nc(CCc3ccc(F)cc3)c(-c3n[nH]c(=O)o3)c2-c2cc3ccnc(N[C@@H]4CCc5c4ccc(F)c5OC(F)F)c3s2)C23CC(CN12)C3 [Compound 285, (R)-5-(4-(7-((4-(difluoromethoxy)-5-fluoro-2,3-dihydro-1H-inden-1-yl)amino)thieno[2,3-c]pyridin-2-yl)-2-(4-fluorophenethyl)-5-oxo-5,7,8,9-tetrahydro-8,9a-methanopyrido[2,3-a]pyrrolizin-3-yl)-1,3,4-oxadiazol-2(3H)-one] | 0.208 | 0.0136
3 | COc1cccc2c1CC[C@H]2Nc1nccc2cc(-c3c4c(nc(CCC5CCCCC5)c3-c3n[nH]c(=O)o3)[C@@H]3CCCN3C4=O)sc12 [Compound 172, 5-((S)-2-(2-cyclohexylethyl)-4-(7-(((R)-4-methoxy-2,3-dihydro-1H-inden-1-yl)amino)thieno[2,3-c]pyridin-2-yl)-5-oxo-7,8,9,9a-tetrahydro-5H-pyrido[2,3-a]pyrrolizin-3-yl)-1,3,4-oxadiazol-2(3H)-one] | 51.1 | 2.06
4 | COc1cccc2c1CC[C@H]2Nc1nccc2cc(-c3c(-c4n[nH]c(=O)o4)c(CCc4ccc(F)cc4)nc4c3S(=O)(=O)C[C@H]4C(C)C)sc12 [Compound 237, 5-((S)-5-(4-fluorophenethyl)-3-isopropyl-7-(7-(((R)-4-methoxy-2,3-dihydro-1H-inden-1-yl)amino)thieno[2,3-c]pyridin-2-yl)-1,1-dioxido-2,3-dihydrothieno[3,2-b]pyridin-6-yl)-1,3,4-oxadiazol-2(3H)-one] | 18.5 | 0.591
5 | COc1c(F)ccc2c1CC(F)(F)[C@@H]2Nc1nccc2cc(-c3c4c(nc(CCc5ccc(F)cc5)c3-c3n[nH]c(=O)o3)[C@@H]3CCCN3C4=O)sc12 [Compound 290, 5-((S)-2-(4-fluorophenethyl)-5-oxo-4-(7-(((R)-2,2,5-trifluoro-4-methoxy-2,3-dihydro-1H-inden-1-yl)amino)thieno[2,3-c]pyridin-2-yl)-7,8,9,9a-tetrahydro-5H-pyrido[2,3-a]pyrrolizin-3-yl)-1,3,4-oxadiazol-2(3H)-one] | 1640 | 17.6
6 | COc1c(F)ccc2c1CC[C@H]2Nc1nc(C)cc2cc(-c3c4c(nc(CCc5ccc(F)cc5)c3-c3n[nH]c(=O)o3)C35CC(CN3C4=O)C5)sc12 [Compound 193, (R)-5-(4-(7-((5-fluoro-4-methoxy-2,3-dihydro-1H-inden-1-yl)amino)-5-methylthieno[2,3-c]pyridin-2-yl)-2-(4-fluorophenethyl)-5-oxo-8,9-dihydro-5H,7H-8,9a-methanopyrido[2,3-a]pyrrolizin-3-yl)-1,3,4-oxadiazol-2(3H)-one] | 0.226 | 0.00749
7 | N#Cc1ccc(Cn2ccc3cc(-c4c5c(nc(CCc6ccc(F)cc6)c4-c4n[nH]c(=O)o4)[C@@H]4CCCN4C5=O)cnc32)nc1 [Compound 223, (S)-6-((5-(2-(4-fluorophenethyl)-5-oxo-3-(5-oxo-4,5-dihydro-1,3,4-oxadiazol-2-yl)-7,8,9,9a-tetrahydro-5H-pyrido[2,3-a]pyrrolizin-4-yl)-1H-pyrrolo[2,3-b]pyridin-1-yl)methyl)nicotinonitrile] | 758 | 27.6

Results, then the molecule that gave them:

Row | EC50 [1] [nM] | EC50 [2] [nM] | SMILES
8 | 3.97 | 0.134 | COc1c(F)ccc2c1CC[C@H]2Nc1nc(C)cc2cc(-c3c4c(nc(CCc5ccc(F)cc5)c3-c3n[nH]c(=O)o3)C(C3CC3)NC4=O)sc12 (stereo partly drawn) [Compound 302, 5-(7-cyclopropyl-4-(7-(((R)-5-fluoro-4-methoxy-2,3-dihydro-1H-inden-1-yl)amino)-5-methylthieno[2,3-c]pyridin-2-yl)-2-(4-fluorophenethyl)-5-oxo-6,7-dihydro-5H-pyrrolo[3,4-b]pyridin-3-yl)-1,3,4-oxadiazol-2(3H)-one]
9 | 1.96 | 0.229 | COc1cccc2c1CC(F)(F)[C@H]2Nc1nccc2cc(-c3c4c(nc(CCc5ccc(F)cc5)c3-c3n[nH]c(=O)o3)[C@@H]3CCCN3C4=O)sc12 [Compound 194, 5-((S)-4-(7-(((S)-2,2-difluoro-4-methoxy-2,3-dihydro-1H-inden-1-yl)amino)thieno[2,3-c]pyridin-2-yl)-2-(4-fluorophenethyl)-5-oxo-7,8,9,9a-tetrahydro-5H-pyrido[2,3-a]pyrrolizin-3-yl)-1,3,4-oxadiazol-2(3H)-one]
10 | 0.562 | 0.0435 | COc1cc(F)cc2c1CC[C@H]2Nc1nccc2cc(-c3c4c(nc(CCc5ccc(F)cc5)c3-c3n[nH]c(=O)o3)C35CC(CN3C4=O)C5)sc12 [Compound 294, (R)-5-(4-(7-((6-fluoro-4-methoxy-2,3-dihydro-1H-inden-1-yl)amino)thieno[2,3-c]pyridin-2-yl)-2-(4-fluorophenethyl)-5-oxo-5,7,8,9-tetrahydro-8,9a-methanopyrido[2,3-a]pyrrolizin-3-yl)-1,3,4-oxadiazol-2(3H)-one]
11 | 1000 | 19.2 | O=c1cc(-c2c(CCC3CCOCC3)nc3c(c2-c2cc4ccnc(N[C@@H]5CCc6ncccc65)c4s2)S(=O)(=O)N2CCC[C@@H]32)o[nH]1 [Compound 198, 5-[(2S)-9-[7-[[(5R)-6,7-dihydro-5H-cyclopenta[b]pyridin-5-yl]amino]thieno[2,3-c]pyridin-2-yl]-7,7-dioxo-11-(2-tetrahydropyran-4-ylethyl)-7thia-6,12-diazatricyclo[6.4.0.02,6]dodeca-1(12),8,10-trien-10-yl]isoxazol-3-one]
12 | 33.3 | 1.67 | C[C@@H](Nc1nccc2cc(-c3c4c(nc(CCc5ccc(F)cc5)c3-c3n[nH]c(=O)o3)[C@@H]3CCCN3C4=O)sc12)c1ccc(F)c(F)c1 [Compound 227, 5-((S)-4-(7-(((R)-1-(3,4-difluorophenyl)ethyl)amino)thieno[2,3-c]pyridin-2-yl)-2-(4-fluorophenethyl)-5-oxo-7,8,9,9a-tetrahydro-5H-pyrido[2,3-a]pyrrolizin-3-yl)-1,3,4-oxadiazol-2(3H)-one]
